Assay [1] concerns the target T1, Recombinant ROCK1 (amino acids 1-477) (Homo sapiens, UniProt Q13464).
T1 construct: Recombinant ROCK1 (amino acids 1-477); by word order, ROCK1 from Carna Biosciences
Briefly: ROCK inhibition assay, LANCE Ultra TR-FRET kinase assay (ROCK1). It is filed as biochemical. To be noted: 1 μM ATP, 50 nM ULight-CREBtide substrate. In short, it runs like this: (§1)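 Reaction buffer 50 mM HEPES pH 7.5, 10 mM MgCl2, 1 mM EGTA, 2 mM DTT; kinase, ULight-CREBtide (50 nM) and ATP (ROCK1 1 μM, ROCK2 4 μM) react 1 h at room temperature. Phospho-Ser133 detected by europium antibody after 10 mM EDTA stop, TR-FRET ex 320 nm; IC50 calculated.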
On the technique in general: In TR-FRET formats the signal depends on donor and acceptor labels being close together.

The target in assay [2] is T2, Recombinant ROCK2 (amino acids 5-554) (Homo sapiens, UniProt O75116).
T2 construct: ROCK2 (amino acids 5-554); by word order, ROCK2 from SignalChem
Briefly: ROCK inhibition assay, LANCE Ultra TR-FRET kinase assay (ROCK2). It is filed as biochemical. To be noted: 4 μM ATP, 50 nM ULight-CREBtide substrate. Put shortly: as §1

Where only a bound is given, the exact number is not on record here.

T2 sequence (O75116 5-554): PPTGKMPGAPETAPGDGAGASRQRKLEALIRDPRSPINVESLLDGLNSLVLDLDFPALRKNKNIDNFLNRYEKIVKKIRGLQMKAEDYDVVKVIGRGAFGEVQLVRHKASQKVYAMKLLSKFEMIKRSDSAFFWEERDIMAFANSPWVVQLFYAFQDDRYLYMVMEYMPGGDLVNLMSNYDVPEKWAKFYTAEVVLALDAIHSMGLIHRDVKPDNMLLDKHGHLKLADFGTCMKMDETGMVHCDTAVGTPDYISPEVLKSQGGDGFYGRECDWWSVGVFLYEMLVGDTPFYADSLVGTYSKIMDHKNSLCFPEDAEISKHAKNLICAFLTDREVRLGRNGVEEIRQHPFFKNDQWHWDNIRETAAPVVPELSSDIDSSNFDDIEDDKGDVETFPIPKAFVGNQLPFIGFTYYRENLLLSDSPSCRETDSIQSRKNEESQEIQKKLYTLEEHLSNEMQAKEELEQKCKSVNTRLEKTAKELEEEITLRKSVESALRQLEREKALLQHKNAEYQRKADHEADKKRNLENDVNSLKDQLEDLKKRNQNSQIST
T1 sequence (Q13464 1-477): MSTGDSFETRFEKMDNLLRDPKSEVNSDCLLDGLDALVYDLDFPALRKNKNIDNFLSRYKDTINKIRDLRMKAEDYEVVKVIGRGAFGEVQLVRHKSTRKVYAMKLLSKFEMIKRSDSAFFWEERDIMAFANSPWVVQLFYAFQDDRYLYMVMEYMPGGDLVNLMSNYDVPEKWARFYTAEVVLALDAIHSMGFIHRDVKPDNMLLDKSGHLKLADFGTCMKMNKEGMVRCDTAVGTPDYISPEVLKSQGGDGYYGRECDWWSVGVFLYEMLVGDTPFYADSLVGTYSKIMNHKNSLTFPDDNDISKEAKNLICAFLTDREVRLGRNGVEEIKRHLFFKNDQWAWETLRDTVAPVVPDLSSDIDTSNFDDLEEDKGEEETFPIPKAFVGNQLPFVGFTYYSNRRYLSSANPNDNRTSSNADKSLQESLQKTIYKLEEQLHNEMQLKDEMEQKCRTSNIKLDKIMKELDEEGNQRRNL

With `Nc1cc(-c2ccc3c(=O)n(Cc4cccc(C(=O)NC5COC5)c4)ccc3c2)ccn1` [Compound 195], the IC50 fell in the range of 101 to 500 nM in assay [1] and 10 to 100 nM in assay [2].
With `Nc1cc(-c2ccc3c(=O)n(Cc4cccc(C(=O)Nc5ccc6c(c5)CCOC6)c4)ccc3c2)ccn1` [Compound 196], the IC50 in assay [1] was 101 to 500 nM; in assay [2], 10 to 100 nM.
In the case of `Nc1cc(-c2ccc3c(=O)n(Cc4cccc(C(=O)Nc5ccc6c(c5)COCC6)c4)ccc3c2)ccn1` [Compound 197], the IC50 fell in the range of 11 to 100 nM in assay [1] and 10 to 100 nM in assay [2].
The matching figures for `Nc1cc(-c2ccc3c(=O)n(Cc4cccc(C(=O)NC5CCCC5)c4)ccc3c2)ccn1` [Compound 198]: above 501 nM and 100 to 500 nM.
`Nc1cc(-c2ccc3c(=O)n(Cc4cccc(C(=O)Nc5ncc[nH]5)c4)ccc3c2)ccn1` [Compound 199]: the IC50 was above 501 nM in assay [1] and 100 to 500 nM in assay [2].
In the case of `Cn1ccc(NC(=O)c2cc(F)cc(Cn3ccc4cc(-c5ccnc(N)c5)ccc4c3=O)c2)n1` [Compound 201], the IC50 in assay [1] was 11 to 100 nM; in assay [2] it was below 10 nM.
Consider `Nc1cc(-c2ccc3c(=O)n(Cc4cc(F)cc(C(=O)NC5COC5)c4)ccc3c2)ccn1` [Compound 202], for which the figures for the IC50 in assay [1] and in assay [2] were above 501 nM and 100 to 500 nM, respectively.
Take `Nc1cc(-c2ccc3c(=O)n(Cc4cccc(C(=O)Nc5ccno5)c4)ccc3c2)ccn1` [Compound 203]: the IC50 in assay [1] was above 501 nM; in assay [2], 100 to 500 nM.
Take `Nc1cc(-c2ccc3c(=O)n(Cc4cccc(C(=O)Nc5ccon5)c4)ccc3c2)ccn1` [Compound 204]: the IC50 was above 501 nM in assay [1] and 100 to 500 nM in assay [2].
With `Nc1cc(-c2ccc3c(=O)n(Cc4cc(F)cc(C(=O)Nc5ccon5)c4)ccc3c2)ccn1` [Compound 205], the IC50 in assay [1] was above 501 nM; in assay [2] it was 100 to 500 nM.
As for `O=C(Nc1ccno1)c1cccc(Cn2ccc3cc(N4CCOCC4)ccc3c2=O)c1` [Compound 206], the IC50 in assay [1] was above 501 nM; in assay [2], above 500 nM.
For the compound `O=C(NC1COC1)c1cccc(Cn2ccc3cc(N4CCOCC4)ccc3c2=O)c1` [Compound 207], the IC50 in assay [1] lay within 11 to 100 nM; in assay [2] it was 100 to 500 nM.
`O=C(NC1COC1)c1cc(F)cc(Cn2ccc3cc(N4CCOCC4)ccc3c2=O)c1` [Compound 208]: the IC50 in assay [1] was above 501 nM; in assay [2] it was 100 to 500 nM.
Regarding `O=C(N[C@H]1C[C@@H](O)C1)c1cc(F)cc(Cn2ccc3cc(N4CCOCC4)ccc3c2=O)c1` [Compound 209], the values for the half-maximal inhibitory concentration (IC50) in assay [1] and in assay [2] were above 501 nM and 100 to 500 nM, respectively.
Turning to `O=C(N[C@H]1C[C@H](O)C1)c1cc(F)cc(Cn2ccc3cc(N4CCOCC4)ccc3c2=O)c1` [Compound 210], the results for the IC50 in assay [1] and in assay [2] were above 501 nM and 100 to 500 nM, respectively.
`O=C(NC1CCOCC1)c1cc(F)cc(Cn2ccc3cc(N4CCOCC4)ccc3c2=O)c1` [Compound 211]: the IC50 in assay [1] was above 501 nM; in assay [2], 100 to 500 nM.
Consider `O=C(NC1CCOCC1)c1cccc(Cn2ccc3cc(N4CCOCC4)ccc3c2=O)c1` [Compound 212], for which the IC50 was above 501 nM in assay [1] and 100 to 500 nM in assay [2].
On to `O=C(N[C@H]1CC[C@H](O)CC1)c1cccc(Cn2ccc3cc(N4CCOCC4)ccc3c2=O)c1` [Compound 213], for which the IC50 in assay [1] is above 501 nM; in assay [2] it was 100 to 500 nM.
With `O=C(N[C@H]1CC[C@@H](O)CC1)c1cccc(Cn2ccc3cc(N4CCOCC4)ccc3c2=O)c1` [Compound 214], the IC50 in assay [1] was above 501 nM; in assay [2], 100 to 500 nM.
Turning to `O=C(N[C@H]1CC[C@@H](O)CC1)c1cc(F)cc(Cn2ccc3cc(N4CCOCC4)ccc3c2=O)c1` [Compound 215], the results for the IC50 in assay [1] and in assay [2] were above 501 nM and 100 to 500 nM, respectively.
Take `O=C(NCCN1CCOCC1)c1cccc(Cn2ccc3cc(N4CCOCC4)ccc3c2=O)c1` [Compound 216]: the results for the IC50 in assay [1] and in assay [2] were 101 to 500 nM and 100 to 500 nM, respectively.
As for `O=C(NCC1CCNCC1)c1cccc(Cn2ccc3cc(N4CCOCC4)ccc3c2=O)c1` [Compound 217], the half-maximal inhibitory concentration (IC50) lay within 101 to 500 nM in assay [1] and 10 to 100 nM in assay [2].
As for `CN1CCC(CNC(=O)c2cccc(Cn3ccc4cc(N5CCOCC5)ccc4c3=O)c2)CC1` [Compound 218], the IC50 fell in the range of 101 to 500 nM in assay [1] and 10 to 100 nM in assay [2].
Turning to `O=C(NCC1CCN(CC(F)F)CC1)c1cccc(Cn2ccc3cc(N4CCOCC4)ccc3c2=O)c1` [Compound 219], the IC50 in assay [1] lay within 101 to 500 nM; in assay [2], 10 to 100 nM.
Turning to `O=C(NCC1CCN(CC(F)(F)F)CC1)c1cccc(Cn2ccc3cc(N4CCOCC4)ccc3c2=O)c1` [Compound 220], the half-inhibitory concentration (IC50) fell in the range of 101 to 500 nM in assay [1] and 10 to 100 nM in assay [2].
Take `O=C(NCC1CCN(CC(F)(F)F)CC1)c1cc(F)cc(Cn2ccc3cc(N4CCOCC4)ccc3c2=O)c1` [Compound 221]: the IC50 in assay [1] lay within 101 to 500 nM; in assay [2], 10 to 100 nM.
For the compound `CN1CCC(CNC(=O)c2cc(F)cc(Cn3ccc4cc(N5CCOCC5)ccc4c3=O)c2)CC1` [Compound 222], the IC50 lay in the range of 101 to 500 nM in assay [1] and 10 to 100 nM in assay [2].
For `CC(C)N1CCC(CNC(=O)c2cccc(Cn3ccc4cc(N5CCOCC5)ccc4c3=O)c2)CC1` [Compound 223], the IC50 in assay [1] is 101 to 500 nM; in assay [2], 10 to 100 nM.
Regarding `CC(C)N1CCC(CNC(=O)c2cc(F)cc(Cn3ccc4cc(N5CCOCC5)ccc4c3=O)c2)CC1` [Compound 224], the IC50 was 101 to 500 nM in assay [1] and 10 to 100 nM in assay [2].
As to `O=C(NCC1CCN(C2CC2)CC1)c1cccc(Cn2ccc3cc(N4CCOCC4)ccc3c2=O)c1` [Compound 225], the IC50 in assay [1] was 101 to 500 nM; in assay [2], 10 to 100 nM.
The corresponding values for `O=C(NCC1CCN(C2CC2)CC1)c1cc(F)cc(Cn2ccc3cc(N4CCOCC4)ccc3c2=O)c1` [Compound 226] are 101 to 500 nM and 10 to 100 nM.
With `O=C(NCC1CCN(C2COC2)CC1)c1cccc(Cn2ccc3cc(N4CCOCC4)ccc3c2=O)c1` [Compound 227], the IC50 was 101 to 500 nM in assay [1] and 10 to 100 nM in assay [2].
As to `O=C(NCC1CCN(C2COC2)CC1)c1cc(F)cc(Cn2ccc3cc(N4CCOCC4)ccc3c2=O)c1` [Compound 228], the values for the IC50 in assay [1] and in assay [2] were 101 to 500 nM and 10 to 100 nM, respectively.
On to `O=C(NCCN1CCOCC1)c1cc(F)cc(Cn2ccc3cc(N4CCOCC4)ccc3c2=O)c1` [Compound 229], for which the IC50 in assay [1] was in the range of 11 to 100 nM; in assay [2], 10 to 100 nM.
As to `O=C(NCCN1CCOCC1)c1cccc(Cn2ccc3cc(N4CCOCC4)ccc3c2=O)c1` [Compound 230], the results for the IC50 in assay [1] and in assay [2] were 11 to 100 nM and 10 to 100 nM, respectively.
Take `CNC(=O)c1cccc(Cn2ccc3cc(-c4cc[nH]c4C)ncc3c2=O)c1` [Compound 231, N-methyl-3-((6-(2-methyl-1H-pyrrol-3-yl)-1-oxo-2,7-naphthyridin-2(1H)-yl)methyl)benzamide]: the IC50 in assay [1] was 11 to 100 nM; in assay [2], below 10 nM.
The corresponding values for `[2H]C([2H])([2H])NC(=O)c1cccc(Cn2ccc3cc(-c4cc[nH]c4C)ncc3c2=O)c1` [Compound 232] are 11 to 100 nM and below 10 nM.
With `[2H]C([2H])([2H])NC(=O)c1cccc(Cn2ccc3cc(-c4cn[nH]c4C(F)(F)F)ncc3c2=O)c1` [Compound 234], the IC50 in assay [1] is 11 to 100 nM; in assay [2], below 10 nM.
The corresponding values for `CNC(=O)c1cccc(Cn2ccc3cc(-c4c[nH]nc4Cl)ncc3c2=O)c1` [Compound 235] are 11 to 100 nM and below 10 nM.
As for `[2H]C([2H])([2H])NC(=O)c1cccc(Cn2ccc3cc(-c4c[nH]nc4Cl)ncc3c2=O)c1` [Compound 236], the IC50 in assay [1] was 11 to 100 nM; in assay [2], below 10 nM.
As to `CNC(=O)c1cccc(Cn2ccc3cc(-c4cn[nH]c4C(F)F)ncc3c2=O)c1` [Compound 237], the IC50 was 11 to 100 nM in assay [1] and below 10 nM in assay [2].
With `[2H]C([2H])([2H])NC(=O)c1cccc(Cn2ccc3cc(-c4cn[nH]c4C(F)F)ncc3c2=O)c1` [Compound 238], the figures for the 50% inhibitory concentration (IC50) in assay [1] and in assay [2] were 11 to 100 nM and below 10 nM, respectively.
Turning to `CNC(=O)c1cccc(Cn2ccc3cc(-c4c[nH]nc4C)ncc3c2=O)c1` [Compound 239], the IC50 was 11 to 100 nM in assay [1] and below 10 nM in assay [2].
Turning to `CNC(=O)c1cccc(Cn2ccc3cc(-c4ccnn4C)ncc3c2=O)c1` [Compound 240], the IC50 in assay [1] fell in the range of 101 to 500 nM; in assay [2], 10 to 100 nM.
As for `CNC(=O)c1cccc(Cn2ccc3cc(-c4conc4C)ncc3c2=O)c1` [Compound 241], the 50% inhibitory concentration (IC50) in assay [1] was 101 to 500 nM; in assay [2] it was 10 to 100 nM.
For `CNC(=O)c1cccc(Cn2ccc3cc(-c4cn[nH]c4C(F)(F)F)cnc3c2=O)c1` [Compound 242], the IC50 was above 501 nM in assay [1] and 100 to 500 nM in assay [2].
With `CNC(=O)c1cccc(Cn2ccc3cc(-c4conc4C)cnc3c2=O)c1` [Compound 243], the IC50 in assay [1] is above 501 nM; in assay [2], 100 to 500 nM.
The matching figures for `CNC(=O)c1cccc(Cn2ccc3cc(-c4ccnc(N)c4)ncc3c2=O)c1` [Compound 244]: 101 to 500 nM and 10 to 100 nM.
For the compound `CNC(=O)c1cc(F)cc(Cn2ccc3cc(-c4ccnn4C)ncc3c2=O)c1` [Compound 245], the IC50 is 101 to 500 nM in assay [1] and 10 to 100 nM in assay [2].
With `CNC(=O)c1cc(F)cc(Cn2ccc3cc(-c4cn[nH]c4C(F)(F)F)ncc3c2=O)c1` [Compound 246], the values for the IC50 in assay [1] and in assay [2] were 11 to 100 nM and below 10 nM, respectively.
The matching figures for `CNC(=O)c1cc(F)cc(Cn2ccc3cc(-c4ccoc4C)ncc3c2=O)c1` [Compound 247]: above 501 nM and above 500 nM.

The IC50 is the concentration that inhibits the measured activity by half.

These data come from patent US12064426B2, “Selective inhibitors of ROCK1 and ROCK2 protein kinases and uses thereof” (GENOSCO Inc., priority 2021, dated 2024).
